This note sets out measurements from patent US20240358689A1, “Modulators Of The Beta-3 Adrenergic Receptor Useful For The Treatment Or Prevention Of Renal Cystic Disease and Cardiorenal Syndrome” (Arena Pharmaceuticals, Inc., priority 2021, published 2024).

The test has as its target T1, Beta-3 Adrenergic Receptor (Homo sapiens, UniProt P13945).
T1 construct: expressed in transfected cells; host or cells: CHO-K1
Briefly: Homogeneous Time-Resolved Fluorescence (HTRF) cAMP antagonist assay. In kind it is cell-based. The following applies: Beta-3 Adrenergic Receptor IC50 Values, isoproterenol at EC90. The protocol: Example 1: IC50 Determinations in Homogeneous Time-Resolved Fluorescence (HTRF®) cAMP Antagonist Assays
HTRF cAMP assays were performed according to manufacturer's instructions (Cisbio, cAMP Dynamic 2 Assay Kit; #62AM4PEJ). CHO-K1 cells stably expressing recombinant receptor were harvested and suspended in warm PBS to make a 300,000 cells/mL stock. This cell suspension was dispensed into 384 well assay plates (PerkinElmer ProxiPlate #6008280) at 5 μL per well (1500 cells/well) along with a cAMP standard curve.
Compounds were dissolved and serially diluted (5-fold) in DMSO to generate a 10-point dose response stock. […] After a brief incubation, 2.5 μL of isoproterenol stock, prepared at a concentration 4 times its EC90 at the receptor of interest, was added to the wells. The EC90 for isoproterenol, a beta-adrenergic agonist, was determined in separate experiments using standard methods to measure agonist potencies.
Following a 1-hour incubation at room temperature, 5 μL of cAMP-D2 Reagent diluted in Lysis Buffer was added to each well followed by 5 μL of Cryptate Reagent. Plates were further incubated at room temperature for 1 hour prior to reading. Time resolved fluorescence measurements were collected on a suitable, HTRF-capable plate reader.
Counts from the plate reader were fit to the cAMP standard curve on the assay plate in order to determine cAMP concentrations in each well, and these values were used to construct dose-response curves to obtain IC50 values.
A general note: TR-FRET usually uses a lanthanide donor and a delayed reading to cut background.

Where [1] appears, read: table of B compounds, CHO-K1 cells.

T1 sequence (P13945 whole entry, species assumed): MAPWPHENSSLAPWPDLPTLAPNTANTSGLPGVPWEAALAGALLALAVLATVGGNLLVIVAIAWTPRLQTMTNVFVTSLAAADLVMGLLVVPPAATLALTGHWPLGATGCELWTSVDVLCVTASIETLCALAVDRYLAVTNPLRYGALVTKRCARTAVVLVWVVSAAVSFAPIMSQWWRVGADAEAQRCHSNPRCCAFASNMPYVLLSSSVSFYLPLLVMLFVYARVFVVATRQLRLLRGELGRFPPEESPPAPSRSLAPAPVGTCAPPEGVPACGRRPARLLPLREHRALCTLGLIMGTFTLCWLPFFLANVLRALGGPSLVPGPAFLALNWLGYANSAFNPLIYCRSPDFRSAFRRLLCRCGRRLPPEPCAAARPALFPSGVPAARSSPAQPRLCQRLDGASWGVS

As to `O=S(=O)(c1cccc(OC[C@@H](O)CN[C@H]2COC3(CCN(S(=O)(=O)c4cnc5cc[nH]c5c4)CC3)C2)c1)C1CC1` [Compound A309, (S)-1-((R)-8-(1H-pyrrolo[3,2-b]pyridin-6-ylsulfonyl)-1-oxa-8-azaspiro[4.5]decan-3-ylamino)-3-(3-(cyclopropylsulfonyl)phenoxy)propan-2-ol], the IC50 (commonly the concentration at which inhibition is half-maximal) (table of A compounds, CHO-K1 cells stably expressing recombinant receptor) came out at 0.007 µM.

In turn, `CNS(=O)(=O)c1cccc(OC[C@@H](O)CN[C@H]2COC3(CCN(S(=O)(=O)c4cncc(-c5ccc(CN)cc5)c4)CC3)C2)c1` [Compound B375, 3-((S)-3-((R)-8-(5-(4-(aminomethyl)phenyl)pyridin-3-ylsulfonyl)-1-oxa-8-azaspiro[4.5]decan-3-ylamino)-2-hydroxypropoxy)-N-methylbenzenesulfonamide] yielded an IC50 under setting [1] of 0.0254 µM. Turning to `CN1CCOc2ncc(S(=O)(=O)N3CCC4(CC3)C[C@@H](NC[C@H](O)COc3cccc(S(=O)(=O)N[C@@H]5CCC[C@@H]5O)c3)CO4)cc21` [Compound B437, 3-((S)-2-hydroxy-3-((R)-8-(1-methyl-2,3-dihydro-1H-pyrido[2,3-b][1,4]oxazin-7-ylsulfonyl)-1-oxa-8-azaspiro[4.5]decan-3-ylamino)propoxy)-N-((1R,2S)-2-hydroxycyclopentyl)benzenesulfonamide], under setting [1], the IC50 came out at 0.472 µM. `CNS(=O)(=O)c1cccc(OC[C@@H](O)CN[C@H]2COC3(CCN(c4nccc(C(=O)O)n4)CC3)C2)c1` [Compound B582, 2-((R)-3-((S)-2-hydroxy-3-(3-(N-methylsulfamoyl)phenoxy)propylamino)-1-oxa-8-azaspiro[4.5]decan-8-yl)pyrimidine-4-carboxylic acid] had an IC50 (table of B compounds, cells in μM, CHO-K1 cells) of no less than 100 µM.
